System: quadriceps muscle
Assay: Proteomic analysis of quadriceps muscle of aged mice treated with 1-methyl-D-tryptophan (Table 1, TOPPGENE enrichment)
Assay type: in vivo
Procedure: Female mice 22 months of age were obtained from the National Institute on Aging and treated with saline (vehicle) or 1-methyl-D-tryptophan (1-MT, Sigma, 452483, lot#MKBZ1441V) at a low dose (10 mg/kg BW) or at a high dose (100 mg/kg BW). Mice were treated daily for 4 weeks. Treatments were administered i.p. with an injection volume of 0.2 ml following IACUC approved procedures. Mice were euthanized by CO2 overdose and muscles harvested for analysis. One quadriceps muscle was snap frozen for proteomics and the other quadriceps muscle fixed in buffered formalin for paraffin embedding and trichrome staining. The tibialis anterior was placed in PBS for amplex red assay.
The IDO inhibitor, 1-methyl-D-tryptophan, blocks kynurenine production and reduces levels of ROS in muscle.

Q: What does the source list for Cn1cc(C[C@@H](N)C(=O)O)c2ccccc21 [1MT]?
A: 1MT vs Control: UTP--glucose-1-phosphate uridylyltransferase (Q91ZJ5, GN = Ugp2): 0.9036; 1MT vs Control: Trifunctional enzyme subunit beta, mitochondrial (Q99JY0, GN = Hadhb): 0.7; 1MT vs Control: Aconitate hydratase, mitochondrial (Q99KI0, GN = Aco2): 0.8406; 1MT vs Control: Electron transfer flavoprotein subunit alpha, mitochondrial (Q99LC5, GN = Etfa): 0.8462; 1MT vs Control: O-acetyl-ADP-ribose deacetylase MACROD1 (Q922B1, GN = Macrod1): 0.9167; 1MT vs Control: Nucleoside diphosphate kinase B (Q01768, GN = Nme2): 0.9242; 1MT vs Control: Transitional endoplasmic reticulum ATPase (Q01853, GN = Vcp): 0.904; 1MT vs Control: Ubiquitin-like modifier-activating enzyme 1 (Q02053, GN = Uba1): 0.5833; 1MT vs Control: Voltage-dependent L-type calcium channel subunit alpha-1S (Q02789, GN = Cacna1s): 0.7143; 1MT vs Control: ATP synthase subunit alpha, mitochondrial (Q03265, GN = Atp5a1): 0.6273; 1MT vs Control: Corticosteroid-binding globulin (Q06770, GN = Serpina6): 0.3125; 1MT vs Control: Short-chain specific acyl-CoA dehydrogenase, mitochondrial (Q07417, GN = Acads): 0.6; 1MT vs Control: Protein-arginine deiminase type-2 (Q08642, GN = Padi2): 0.3438; 1MT vs Control: Puromycin-sensitive aminopeptidase (Q11011, GN = Npepps): 0.5; 1MT vs Control: 2-oxoglutarate dehydrogenase, mitochondrial (Q60597, GN = Ogdh): 0.4671; 1MT vs Control: Voltage-dependent anion-selective channel protein 3 (Q60931, GN = Vdac3): 0.2609; 1MT vs Control: Voltage-dependent anion-selective channel protein 1 (Q60932, GN = Vdac1): 0.3333; 1MT vs Control: Peroxiredoxin-2 (Q61171, GN = Prdx2): 0.7895; 1MT vs Control: Hydroxyacyl-coenzyme A dehydrogenase, mitochondrial (Q61425, GN = Hadh): 0.6364; 1MT vs Control: Alpha-2-macroglobulin (Q61838, GN = A2m): 0.6316; 1MT vs Control: Striated muscle-specific serine/threonine-protein kinase (Q62407, GN = Speg): 0.6667; 1MT vs Control: 10 kDa heat shock protein, mitochondrial (Q64433, GN = Hspe1): 0.4; 1MT vs Control: Glycerol-3-phosphate dehydrogenase, mitochondrial (Q64521, GN = Gpd2): 0.3077; 1MT vs Control: Trifunctional purine biosynthetic protein adenosine-3 (Q64737, GN = Gart): 0.8; 1MT vs Control (protein A2AUC9 Kelch-like protein 41, GN=Klhl41): 1.077; 1MT vs Control (protein O08539 Myc box-dependent-interacting protein 1, GN=Bin1): 1.064; 1MT vs Control (protein O70209 PDZ and LIM domain protein 3, GN=Pdlim3): 1.412; 1MT vs Control (protein P04117 Fatty acid-binding protein, adipocyte, GN=Fabp4): 1.1; 1MT vs Control (protein P05064 Fructose-bisphosphate aldolase A, GN=Aldoa): 1.096; 1MT vs Control (protein P05132 cAMP-dependent protein kinase catalytic subunit alpha, GN=Prkaca): 1; 1MT vs Control (protein P07309 Transthyretin, GN=Ttr): 2.5; 1MT vs Control (protein P07310 Creatine kinase M-type, GN=Ckm): 1.182; 1MT vs Control (protein P07758 Alpha-1-antitrypsin 1-1, GN=Serpina1a): 1.091; 1MT vs Control (protein P08228 Superoxide dismutase [Cu—Zn], GN=Sod1): 1.273; 1MT vs Control (protein P09103 Protein disulfide-isomerase, GN=P4hb): 1.077; 1MT vs Control (protein P09411 Phosphoglycerate kinase 1, GN=Pgk1): 1.089; 1MT vs Control (protein P10637 Microtubule-associated protein tau, GN=Mapt): 3; 1MT vs Control (protein P10649 Glutathione S-transferase Mu 1, GN=Gstm1): 1.152; 1MT vs Control (protein P13412 Troponin I, fast skeletal muscle, GN=Tnni2): 1.5; 1MT vs Control (protein P13707 Glycerol-3-phosphate dehydrogenase [NAD(+)], cytoplasmic, GN=Gpd1): 1.072; 1MT vs Control (protein P14231 Sodium/potassium-transporting ATPase subunit beta-2, GN=Atp1b2): 1; 1MT vs Control (protein P15626 Glutathione S-transferase Mu 2, GN=Gstm2): 1.111; 1MT vs Control (protein P16858 Glyceraldehyde-3-phosphate dehydrogenase, GN=Gapdh): 1.167; 1MT vs Control (protein P17182 Alpha-enolase, GN=Eno1): 1.039; 1MT vs Control (protein P17742 Peptidyl-prolyl cis-trans isomerase A, GN=Ppia): 1.176; 1MT vs Control (protein P17751 Triosephosphate isomerase, GN=Tpi1): 1.136; 1MT vs Control (protein P18826 Phosphorylase b kinase regulatory subunit alpha, skeletal muscle isoform, GN=Phka1): 1.143; 1MT vs Control (protein P20029 78 kDa glucose-regulated protein, GN=Hspa5): 1.522; 1MT vs Control (protein P21550 Beta-enolase, GN=Eno3): 1.063; 1MT vs Control (protein P22599 Alpha-1-antitrypsin 1-2, GN=Serpina1b): 1.028; 1MT vs Control (protein P23506 Protein-L-isoaspartate(D-aspartate) O-methyltransferase, GN=Pcmt1): 1; 1MT vs Control (protein P23953 Carboxylesterase 1C, GN=Ces1c): 1.08; 1MT vs Control (protein P26043 Radixin, GN=Rdx): 1.267; 1MT vs Control (protein P26883 Peptidyl-prolyl cis-trans isomerase FKBP1A, GN=Fkbp1a): 1.5; 1MT vs Control (protein P27546 Microtubule-associated protein 4, GN=Map4): 3; 1MT vs Control (protein P28474 Alcohol dehydrogenase class-3, GN=Adh5): 1.176; 1MT vs Control (protein P28654 Decorin, GN=Dcn): 1.36; 1MT vs Control (protein P29699 Alpha-2-HS-glycoprotein, GN=Ahsg): 1.111; 1MT vs Control (protein P31001 Desmin, GN=Des): 1.133; 1MT vs Control (protein P45376 Aldose reductase, GN=Akr1b1): 1.064; 1MT vs Control (protein P45591 Cofilin-2, GN=Cfl2): 1; 1MT vs Control (protein P47791 Glutathione reductase, mitochondrial, GN=Gsr): 1.25; 1MT vs Control (protein P47857 ATP-dependent 6-phosphofructokinase, muscle type, GN=Pfkm): 1.013; 1MT vs Control (protein P50396 Rab GDP dissociation inhibitor alpha, GN=Gdi1): 1.1875; 1MT vs Control (protein P51885 Lumican, GN=Lum): 1.231; 1MT vs Control (protein P58252 Elongation factor 2, GN=Eef2): 1.092; 1MT vs Control (protein P62631 Elongation factor 1-alpha 2, GN=Eef1a2): 1.256; 1MT vs Control (protein P62908 40S ribosomal protein S3, GN=Rps3): 1; 1MT vs Control (protein P63005 Platelet-activating factor acetylhydrolase IB subunit alpha, GN=Pafah1b1): 1.25; 1MT vs Control (protein P63017 Heat shock cognate 71 kDa protein, GN=Hspa8): 1.016; 1MT vs Control (protein P68134 Actin, alpha skeletal muscle, GN=Acta1): 1.126; 1MT vs Control (protein P70296 Phosphatidylethanolamine-binding protein 1, GN=Pebp1): 1.024; 1MT vs Control (protein P70402 Myosin-binding protein H, GN=Mybph): 1.156; 1MT vs Control (protein P82349 Beta-sarcoglycan, GN=Sgcb): 1; 1MT vs Control (protein P97384 Annexin A11, GN=Anxa11): 1.375; 1MT vs Control (protein Q3TJD7 PDZ and LIM domain protein 7, GN=Pdlim7): 1.111; 1MT vs Control (protein Q3TVI8 Pre-B-cell leukemia transcription factor-interacting protein 1, GN=Pbxip1): 1; 1MT vs Control (protein Q3TXS7 26S proteasome non-ATPase regulatory subunit 1, GN=Psmd1): 1.333; 1MT vs Control (protein Q3U0V1 Far upstream element-binding protein 2, GN=Khsrp): 1; 1MT vs Control (protein Q3UZA1 CapZ-interacting protein, GN=Rcsd1): 1.2; 1MT vs Control (protein Q5SX39 Myosin-4, GN=Myh4): 1.106; 1MT vs Control (protein Q7TSH2 Phosphorylase b kinase regulatory subunit beta, GN=Phkb): 1.083; 1MT vs Control (protein Q8BGQ7 Alanine--tRNA ligase, cytoplasmic, GN=Aars): 1.5; 1MT vs Control (protein Q8BU85 Methionine-R-sulfoxide reductase B3, mitochondrial, GN=Msrb3): 2.5; 1MT vs Control (protein Q8C7E7 Starch-binding domain-containing protein 1, GN=Stbd1): 1; 1MT vs Control (protein Q8CGC7 Bifunctional glutamate/proline--tRNA ligase, GN=Eprs): 1.333; 1MT vs Control (protein Q8CHP8 Phosphoglycolate phosphatase, GN=Pgp): 1; 1MT vs Control (protein Q8CHS7 Dehydrogenase/reductase SDR family member 7C, GN=Dhrs7c): 2.667; 1MT vs Control (protein Q8CHT0 Delta-1-pyrroline-5-carboxylate dehydrogenase, mitochondrial, GN=Aldh4a1): 1; 1MT vs Control (protein Q8K4Z3 NAD(P)H-hydrate epimerase, GN=Apoa1bp): 1; 1MT vs Control (protein Q8R1G2 Carboxymethylenebutenolidase homolog, GN=Cmbl): 1.235; 1MT vs Control (protein Q8VCM7 Fibrinogen gamma chain, GN=Fgg): 1.25; 1MT vs Control (protein Q8VHX6 Filamin-C, GN=Flnc): 1.059; 1MT vs Control (protein Q9CPU0 Lactoylglutathione lyase, GN=Glo1): 1.095; 1MT vs Control (protein Q9CZ30 Obg-like ATPase 1, GN=Ola1): 3.25; 1MT vs Control (protein Q9D7X3 Dual specificity protein phosphatase 3, GN=Dusp3): 1.5; 1MT vs Control (protein Q9D8N0 Elongation factor 1-gamma, GN=Eef1g): 1.1; 1MT vs Control (protein Q9D172 ES1 protein homolog, mitochondrial, GN=D10Jhu81e): 1.2; 1MT vs Control (protein Q9ESD7 Dysferlin, GN=Dysf): 3; 1MT vs Control (protein Q9ET78 Junctophilin-2, GN=Jph2): 1.381; 1MT vs Control (protein Q9ET80 Junctophilin-1, GN=Jph1): 1.143; 1MT vs Control (protein Q9JKB3 Y-box-binding protein 3, GN=Ybx3): 1.333; 1MT vs Control (protein Q9JKS4 LIM domain-binding protein 3, GN=Ldb3): 1.037; 1MT vs Control (protein Q9QYG0 Protein NDRG2, GN=Ndrg2): 1.015; 1MT vs Control (protein Q9R0Y5 Adenylate kinase isoenzyme 1, GN=Ak1): 1.133; 1MT vs Control (protein Q9R062 Glycogenin-1, GN=Gyg1): 1.538; 1MT vs Control (protein Q9WUZ7 SH3 domain-binding glutamic acid-rich protein, GN=Sh3bgr): 1.057; 1MT vs Control (protein Q9Z1Z2 Serine-threonine kinase receptor-associated protein, GN=Strap): 1.5; 1MT vs Control (protein Q9Z2U0 Proteasome subunit alpha type-7, GN=Psma7): 3; 1MT vs Control (protein Q70KF4 Cardiomyopathy-associated protein 5, GN=Cmya5): 1; 1MT vs Control (protein Q76MZ3 Serine/threonine-protein phosphatase 2A 65 kDa regulatory subunit A alpha isoform, GN=Ppp2r1a): 1.125; 1MT vs Control (protein Q91VI7 Ribonuclease inhibitor, GN=Rnh1): 1.111; 1MT vs Control (protein Q91YE8 Synaptopodin-2, GN=Synpo2): 1.077; 1MT vs Control (protein Q99LX0 Protein deglycase DJ-1, GN=Park7): 1.194; 1MT vs Control (protein Q99PR8 Heat shock protein beta-2, GN=Hspb2): 1.5; 1MT vs Control (protein Q924M7 Mannose-6-phosphate isomerase, GN=Mpi): 1.111; 1MT vs Control (protein Q04857 Collagen alpha-1(VI) chain, GN=Col6a1): 1.5; 1MT vs Control (protein Q60864 Stress-induced-phosphoprotein 1, GN=Stip1): 1.167; 1MT vs Control (protein Q61292 Laminin subunit beta-2, GN=Lamb2): 1; 1MT vs Control (protein Q61584 Fragile X mental retardation syndrome-related protein 1, GN=Fxr1): 1; 1MT vs Control (protein Q62234 Myomesin-1, GN=Myom1): 1.113; 1MT vs Control (protein Q62446 Peptidyl-prolyl cis-trans isomerase FKBP3, GN=Fkbp3): 1.429; 1MT vs Control (protein Q64105 Sepiapterin reductase, GN=Spr): 1.5; 1MT vs Control (protein Q64727 Vinculin, GN=Vcl): 1.333
